{"source": "paper PMC8492600", "about": "(Cell Systems, 2021)", "origin": "cited, not measured here", "key": {"HLA-A*02:01": {"target": "HLA-A*02:01 (Homo sapiens, UniProt P04439, D140Y/D185E/D98H/E176V/E277Q/G131W/G231S/I119V/I121R/I166T/I218V/L300P/L318F/N151K/N90K/P208A/P217A/Q86G/Q94H/R138H/R169H/T345S)"}, "HLA-B*40:01": {"target": "HLA-B*40:01 (Homo sapiens, UniProt P01889, A65T/A93T/A95T/D138N/D98Y/E176V/E69K/N87E/Q56L/Q94N/R180L/S121R/S35A/S48T/T167S/V36M/W171L/Y33H/Y91S)"}}, "data": [{"sequence": "GFMWLSYFI", "values": [{"measurement": "binding of the mutated epitope to HLA-A*02:01", "setting": "HLA-A*02:01", "result": "lose binding"}]}, {"sequence": "MKVTPSGTWL", "values": [{"measurement": "binding of the mutated epitope to HLA-B*40:01", "setting": "HLA-B*40:01", "result": "lose binding"}]}]}
